{"source": "paper PMC5889475", "about": "(Biochimie Open, 2015)", "target": "T1, His-GlNMNAT (GlNMNAT, GlNMNAT-A) (Giardia duodenalis, UniProt A8BW22)", "T1 sequence (A8BW22 1-227)": "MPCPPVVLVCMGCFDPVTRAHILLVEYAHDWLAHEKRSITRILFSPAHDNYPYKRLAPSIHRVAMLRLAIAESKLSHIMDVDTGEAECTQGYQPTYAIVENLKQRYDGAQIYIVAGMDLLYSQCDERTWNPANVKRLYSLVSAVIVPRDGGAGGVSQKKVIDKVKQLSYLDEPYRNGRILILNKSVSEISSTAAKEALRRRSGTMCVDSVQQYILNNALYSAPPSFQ", "experiment": "C18-HPLC of NAAD formation", "assay_type": "biochemical", "conditions": "ATP 10 mM; NAMN 0.25-12 mM"}
{"smiles": "O=C([O-])c1ccc[n+]([C@@H]2O[C@H](COP(=O)(O)O)[C@@H](O)[C@H]2O)c1", "note": "[NAMN]", "values": [{"measurement": "C18-HPLC of NAAD formation", "value": "for NAMN saturation was not observed, implying that the enzyme has low affinity yet detectable"}]}
